In US3963716A, “Novel 1-phthalazone derivative, a process for its preparation and a pharmaceutical composition containing it” (priority 1973, dated 1976):
Where two headings read alike, the source gives them in different places.

Legend:
[1] = system: human platelet; assay: human platelet aggregation in vitro induced by ADP or adrenaline (CPRP); format: cell-based; conditions: 200 s, intensity with compound vs saline; for activity at 40 µg/mL: 40 μg/ml; for activity at 80 µg/mL: 80 μg/ml; for activity at 300 µg/mL: 300 μg/ml
Protocol: Samples of human CPRP (citrated platelet-rich plasma) were incubated at 37°C. for 200 sec. with 1/10 volume of saline containing various amount of the compound to be tested. To the mixture was then added ADP (3μMole) or adrenaline (1 μg/ml). Intensity of primary and secondary aggregation was measured with a platelet aggregation meter (Chrono-Log, Model 300).
Intensity of ADP- or adrenaline-induced aggregation of each sample, which was incubated with the compound, was compared with that of the same sample incubated with saline. The ratio was expressed as a percentage of intensity of aggregation with the compound against one with saline.
The intensity of primary and secondary aggregation of platelets was measured by the procedure described in H. Yamazaki, T. Sano, et al.; title[Platelet Functions in Thromboembolic Disorders] Thrombosis et Diatheses Haemorrhagica "in press" and the references cited therein.

[2] = system: cyclic AMP phosphodiesterase; assay: inhibition of cyclic AMP phosphodiesterase, human platelet; format: biochemical; conditions: 50% inhibition of cyclic AMP phosphodiesterase; read-out: I50, Platelet (human)
Protocol: (§1) The procedure of the experiment was carried out in accordance with the method described in H. Hidaka and M. Shibuya: title "A new assay of cyclic nucleotide phosphodiesterase and its application to humans", Biochemical Medicine, (in press).

[3] = molecular target: cyclic AMP phosphodiesterase; assay: inhibition of cyclic AMP phosphodiesterase, aortic wall media (rabbit); format: biochemical; conditions: 50% inhibition of cyclic AMP phosphodiesterase; read-out: I50, Aortic Wall, Media (rabbit)
Protocol: as §1

[4] = read-out: Inhibition ratio, primary aggregation, ADP 3 μM
[5] = read-out: Inhibition ratio, primary aggregation, Adrenaline 1μg/ml
[6] = read-out: Inhibition ratio, secondary aggregation, ADP 3 μM
[7] = read-out: Inhibition ratio, secondary aggregation, Adrenaline 1μg/ml

SMILES | activity at 40 µg/mL [1, 4] [%] | activity at 40 µg/mL [1, 5] [%] | activity at 40 µg/mL [1, 6] [%] | activity at 40 µg/mL [1, 7] [%] | activity at 80 µg/mL [1, 4] [%] | activity at 80 µg/mL [1, 5] [%] | activity at 80 µg/mL [1, 6] [%] | activity at 80 µg/mL [1, 7] [%] | activity at 300 µg/mL [1, 4] [%] | activity at 300 µg/mL [1, 5] [%] | activity at 300 µg/mL [1, 6] [%] | activity at 300 µg/mL [1, 7] [%] | IC50 [2] [µM] | IC50 [3] [µM]
CC(=O)Oc1ccccc1C(=O)O [Acetylsalicylic acid] | 98.9 ± 3.4 | 106 ± 3.3 | 78 ± 9.9 | 45 ± 7.8 | 95.7 ± 1.8 | 95.6 ± 5.2 | 70.2 ± 10.1 | 46.5 ± 7.9 | 109 ± 3.6 | 108 ± 2.6 | 75.5 ± 5.9 | 62.7 ± 10.7 | – | –
Cn1c(=O)c2c(ncn2C)n(C)c1=O [caffeine] | – | – | – | – | – | – | – | – | – | – | – | – | 350 | 460
